Tests used:
ERK = assay: Western blotting of activated ERK in α7+/− myotubes; format: cell-based, mouse; conditions: VPA treated myotubes
Description: (§1) α7^+/− myogenic cells were cultured on 1% gelatin-coated plastic plates in Ham's F-10 growth medium (20% FBS, 0.5% chick embryo extract, 5 ng/ml bFGF, 2 mM glutamine, 100 U/ml penicillin and 100 μg/ml streptomycin). After six passages, cells were grown in DMEM containing 20% FBS, 0.5% chick embryo extract, 2 mM glutamine, 100 U/ml penicillin and 100 μg/ml streptomycin. Differentiation was induced by switching the medium to DMEM containing 2% horse serum and antibiotics when cells attained 90% confluence. After 48 hours of differentiation, 2 mM VPA was added and supplied fresh every 24 hours. Wortmannin was used at 100 nM and added fresh every 24 hours.
(§2) Cell lysates of differentiating cells on 60 mm dishes were prepared as follows: the cells were washed twice with PBS and 200 μl Triton X-100 lysis buffer (2% Triton X-100, 20 mM Tris-Cl, pH 7.4, 150 mM NaCl, 1 mM EDTA, 1 mM EGTA, 2.5 mM NaPPi, 1 mM β-glycerophosphate, 1 mM sodium vanadate, 1:200 Protease Inhibitor Cocktail (EMD Chemicals, San Diego, Calif.) and 1 mM PMSF) were added. […] Protein concentrations were determined by the Bradford assay. […] The supernatants were collected and protein concentrations were determined spectrophotometrically at OD260 and OD280. […] ImageQuant analysis software (Molecular Dynamics, Sunnyvale, Calif.) was used to quantify band intensity.

[1] = mice; cited from earlier work
α7A integrin = assay: Western blotting of α7A integrin in α7+/− myotubes; format: cell-based, mouse; conditions: 2 mM VPA for 72 hours
Description: as §1, §2

dyw mouse model of MDC1A = assay: VPA in the dyw mouse model of MDC1A (predicted); format: in vivo
Description: In particular, the effect of VPA on MDC1A is determined by using the dyw mouse model of MDC1A. VPA (60 mg/kg or 240 mg/kg body weight) is administered i.p. daily to male dyw mice (n=11 each, as determined by Power analysis with α=0.05, p=0.8 and r=0.5) for 6 weeks starting at 10 days of age. Daily body weights are noted and mice observed for signs of overt toxicity. Control mice of each genotype will be injected with the same volumes of sterile saline. At the end of the course of injections, mice are sacrificed and the gastrocnemius-soleus, quadriceps, heart and diaphragm harvested. Tissues are sectioned on a Leica CM 1850 cryostat to 10 μm. Hematoxylin-eosin staining is performed on the sections. The effect of VPA on the Akt pathway, fibrosis, apoptosis and/or fiber-diameter variation in skeletal muscle of dyw mice is determined by methods known to those of ordinary skill in the art including, but not limited to those described below.
As muscle fiber-diameter variation is a pathological feature in MDC1A muscle, it can be determined if treatment with VPA restores this parameter in dyw mice. Using image analysis software, muscle-fiber diameters are calculated in at least 500 fibers per mouse in both the VPA and control treated groups. […] Data is analyzed by ANOVA and a p-value of <0.05 is considered statistically significant.
To quantify fibrosis in muscles, western blotting is performed on muscle extracts using an antibody against collagen VI (Santa Cruz Biotechnology, Santa Cruz, Calif.). Protein extracts are made from muscles as reported (Gurpur et al., 2009) and the Bradford assay is done to determine protein concentrations. Western blotting is carried out using 1:1000 dilution of the anti-collagen VI antibody. The blots are re-probed with an antibody against tubulin to ensure equal protein loading. Band intensities are quantified using the LiCor Odyssey software (LiCor Biosciences, Lincoln, Neb.). Ratio of the collagen VI to tubulin band-intensities is calculated. […] Data is analyzed by ANOVA and a p-value of <0.05 is considered statistically significant.
Muscle fiber loss due to apoptosis is a significant problem in MDC1A patients. To determine if VPA treatment decreases apoptosis in dyw muscle, after the course of injections, mice are sacrificed and the gastrocnemius-soleus, quadriceps and diaphragm harvested. Tissues are sectioned on a Leica CM 1850 cryostat to 10 μm. The DeadEnd fluorometric TUNEL assay kit (Promega, Madison, Wis.) is used as per the manufacturer's instructions to label apoptotic nuclei in the cryosections. The total number of nuclei (DAPI labeled, fluorescing blue) and the apoptotic nuclei (fluorescing green) are counted in 15 random fields for each muscle, for each mouse. The proportion of apoptotic nuclei is quantified and compared between the VPA injected and control mice. […] Data is analyzed by ANOVA and a p-value of <0.05 is considered statistically significant.
VPA is administered to male dyw mice (n=11 each) daily for 6 weeks with 80 mg/kg or 240 mg/kg body weight of VPA starting at 10 days of age. Daily body weights are noted and mice are observed for signs of overt toxicity. Control mice are injected with the same volumes of sterile saline.
After the course of injections, mice are sacrificed and the gastrocnemius-soleus, quadriceps and diaphragm harvested. Protein extracts are made from the muscles as reported (Gurpur et al., 2009). […]

**Q.** With `CCCC(CCC)C(=O)O` [VPA, valproic acid] as the compound, how does the “levels of activated ERK” value (ERK) read?
**A.** Its value is “significantly lower levels”.

**Q.** And the half-life [1]?
**A.** The half-life was “about 45 minutes”.

**Q.** And the “α7A integrin isoform increase” value (α7A integrin)?
**A.** Its value is 2 fold.

**Q.** And the “Akt pathway in skeletal muscle of dyw mice” value (dyw mouse model of MDC1A)?
**A.** Its value is “activates the Akt pathway”.

**Q.** What about the “apoptosis in skeletal muscle of dyw mice” value (dyw mouse model of MDC1A) of the same compound?
**A.** The value was “inhibiting apoptosis”.

**Q.** And the “fiber-diameter variation in skeletal muscle of dyw mice” value (dyw mouse model of MDC1A)?
**A.** The value was “decreasing fiber-diameter variation”.

**Q.** What about the “fibrosis in skeletal muscle of dyw mice” value (dyw mouse model of MDC1A) of the same compound?
**A.** The value was “decreasing fibrosis”.

**Q.** And the “pathology in dyw mice” value (dyw mouse model of MDC1A)?
**A.** Its value is “ameliorate pathology”.
